In assay [1] the target is T1, alanine racemase (AR); light protiated form HAR (Geobacillus stearothermophilus, UniProt P10724). Nature of the assay: steady-state racemization kinetics, competitive inhibition. The assay is classed as biochemical.
Assay [2] addresses T1, alanine racemase (AR); light protiated form HAR. As to the kind of experiment: Michaelis-Menten saturation curves. The format is biochemical. The following applies: pH 8.9, 25 °C; light (protiated) enzyme.

T1 sequence (P10724 whole entry): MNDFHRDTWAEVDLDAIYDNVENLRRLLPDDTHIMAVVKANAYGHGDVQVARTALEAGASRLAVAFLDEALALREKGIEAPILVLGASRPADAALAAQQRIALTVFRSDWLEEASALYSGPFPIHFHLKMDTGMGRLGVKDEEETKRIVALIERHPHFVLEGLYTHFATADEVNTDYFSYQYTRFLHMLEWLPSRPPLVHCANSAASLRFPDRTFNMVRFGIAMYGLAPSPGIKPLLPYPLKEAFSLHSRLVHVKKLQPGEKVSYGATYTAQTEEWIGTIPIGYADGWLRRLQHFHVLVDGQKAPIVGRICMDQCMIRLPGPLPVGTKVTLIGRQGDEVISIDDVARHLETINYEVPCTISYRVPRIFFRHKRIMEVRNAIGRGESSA

As to `CC(C)(N)C(=O)O` [2-methylalanine], the Ki (as a rule, the equilibrium dissociation constant of an inhibitor or competing ligand from its target) in assay [1] turned out to be 24 ± 1 mM. As for `C[C@@H](N)C(=O)O` [D-alanine], in assay [2], the KM entry is “Michaelis-Menten saturation curves for ^HAR and ^DAR with protiated L- and D-alanine”. Consider `C[C@H](N)C(=O)O` [L-alanine], for which the KM entry in assay [2] was “Michaelis-Menten saturation curves for ^HAR and ^DAR with protiated L- and D-alanine”.

The values are drawn from article PMC3579662 (Journal of the American Chemical Society, 2013).
